# Experimental data from ChEMBL document CHEMBL3797052 (Eur J Med Chem, 2016).
# Test system: not listed separately
# Experiment: Antiproliferative activity against human OVCAR4 cells assessed as cell growth at 10^-6 M after 48 hrs by sulforhodamine B assay
# Assay type: functional
# Settings: OVCAR-4, 48 h, read-out: Activity
row,Compound,growth at 1 µM [%]
1,CNC(=O)c1cc(Oc2ccc3nc(NC(=O)c4cc(C(F)(F)F)cc(C(F)(F)F)c4)sc3c2)ccn1,89

# Test system: K562
# Experiment: Antiproliferative activity against human K562 cells assessed as cell growth at 10^-8 M after 48 hrs by sulforhodamine B assay
# Assay type: functional
# Settings: K562, 48 h, read-out: Activity
row,Compound,growth at 0.01 µM [%]
1,CNC(=O)c1cc(Oc2ccc3nc(NC(=O)c4cc(C(F)(F)F)cc(C(F)(F)F)c4)sc3c2)ccn1,103

# Test system: U-251
# Experiment: Antiproliferative activity against human U251 cells assessed as cell growth at 10^-8 M after 48 hrs by sulforhodamine B assay
# Assay type: functional
# Settings: U-251, 48 h, read-out: Activity
row,Compound,growth at 0.01 µM [%]
1,CNC(=O)c1cc(Oc2ccc3nc(NC(=O)c4cc(C(F)(F)F)cc(C(F)(F)F)c4)sc3c2)ccn1,98

# Test system: NCI-H226
# Experiment: Antiproliferative activity against human NCI-H226 cells assessed as cell growth at 10^-6 M after 48 hrs by sulforhodamine B assay
# Assay type: functional
# Settings: NCI-H226, 48 h, read-out: Activity
row,Compound,growth at 1 µM [%]
1,CNC(=O)c1cc(Oc2ccc3nc(NC(=O)c4cc(C(F)(F)F)cc(C(F)(F)F)c4)sc3c2)ccn1,101

# Test system: not listed separately
# Experiment: Antiproliferative activity against human TK10 cells assessed as cell growth at 10^-8 M after 48 hrs by sulforhodamine B assay
# Assay type: functional
# Settings: TK-10, 48 h, read-out: Activity
row,Compound,growth at 0.01 µM [%]
1,CNC(=O)c1cc(Oc2ccc3nc(NC(=O)c4cc(C(F)(F)F)cc(C(F)(F)F)c4)sc3c2)ccn1,95

# Test system: NCI-H460
# Experiment: Antiproliferative activity against human NCI-H460 cells assessed as growth inhibition after 48 hrs by sulforhodamine B assay
# Assay type: functional
# Settings: NCI-H460, 48 h
Compound,GI50 [µM],LC50 (concentration killing 50% of cells) [µM],TGI [µM]
CNC(=O)c1cc(Oc2ccc3nc(NC(=O)c4cc(C(F)(F)F)cc(C(F)(F)F)c4)sc3c2)ccn1,3.83,58.9,14.6

# Test system: HT-29
# Experiment: Antiproliferative activity against human HT-29 cells assessed as cell growth at 10^-4 M after 48 hrs by sulforhodamine B assay
# Assay type: functional
# Settings: HT-29, 48 h, read-out: Activity
row,Compound,growth at 100 µM [%]
1,CNC(=O)c1cc(Oc2ccc3nc(NC(=O)c4cc(C(F)(F)F)cc(C(F)(F)F)c4)sc3c2)ccn1,-51

# Test system: not listed separately
# Experiment: Antiproliferative activity against human MOLT4 cells assessed as growth inhibition after 48 hrs by sulforhodamine B assay
# Assay type: functional
# Settings: MOLT-4, 48 h
Compound,GI50 [µM],LC50 [µM],TGI [µM]
CNC(=O)c1cc(Oc2ccc3nc(NC(=O)c4cc(C(F)(F)F)cc(C(F)(F)F)c4)sc3c2)ccn1,2.61,> 100,12.4

# Test system: not listed separately
# Experiment: Antiproliferative activity against human OVCAR8 cells assessed as cell growth at 10^-7 M after 48 hrs by sulforhodamine B assay
# Assay type: functional
# Settings: OVCAR-8, 48 h, read-out: Activity
row,Compound,growth at 0.1 µM [%]
1,CNC(=O)c1cc(Oc2ccc3nc(NC(=O)c4cc(C(F)(F)F)cc(C(F)(F)F)c4)sc3c2)ccn1,102

# Test system: MDA-MB-468
# Experiment: Antiproliferative activity against human MDA-MB-468 cells assessed as cell growth at […] after 48 hrs by sulforhodamine B assay
# Assay type: functional
# Settings: MDA-MB-468, 48 h, read-out: Activity
row,Compound,growth at 0.01 µM [%]
1,CNC(=O)c1cc(Oc2ccc3nc(NC(=O)c4cc(C(F)(F)F)cc(C(F)(F)F)c4)sc3c2)ccn1,92

# Test system: KM12
# Experiment: Antiproliferative activity against human KM12 cells assessed as cell growth at 10^-7 M after 48 hrs by sulforhodamine B assay
# Assay type: functional
# Settings: KM12, 48 h, read-out: Activity
row,Compound,growth at 0.1 µM [%]
1,CNC(=O)c1cc(Oc2ccc3nc(NC(=O)c4cc(C(F)(F)F)cc(C(F)(F)F)c4)sc3c2)ccn1,99

# Test system: not listed separately
# Experiment: Antiproliferative activity against human HCC2998 cells assessed as cell growth at 10^-8 M after 48 hrs by sulforhodamine B assay
# Assay type: functional
# Settings: HCC 2998, 48 h, read-out: Activity
row,Compound,growth at 0.01 µM [%]
1,CNC(=O)c1cc(Oc2ccc3nc(NC(=O)c4cc(C(F)(F)F)cc(C(F)(F)F)c4)sc3c2)ccn1,105

# Test system: not listed separately
# Experiment: Antiproliferative activity against human PC3 cells assessed as growth inhibition after 48 hrs by sulforhodamine B assay
# Assay type: functional
# Settings: PC-3, 48 h
Compound,GI50 [µM],LC50 [µM],TGI [µM]
CNC(=O)c1cc(Oc2ccc3nc(NC(=O)c4cc(C(F)(F)F)cc(C(F)(F)F)c4)sc3c2)ccn1,2.53,> 100,12.8

# Test system: not listed separately
# Experiment: Antiproliferative activity against human TK10 cells assessed as growth inhibition after 48 hrs by sulforhodamine B assay
# Assay type: functional
# Settings: TK-10, 48 h
Compound,GI50 [µM],TGI [µM]
CNC(=O)c1cc(Oc2ccc3nc(NC(=O)c4cc(C(F)(F)F)cc(C(F)(F)F)c4)sc3c2)ccn1,3.37,13.3

# Same assay, conditions: TK-10, 48 h, read-out: LC50 (the source's name)
row,Compound,CC50 [µM]
1,CNC(=O)c1cc(Oc2ccc3nc(NC(=O)c4cc(C(F)(F)F)cc(C(F)(F)F)c4)sc3c2)ccn1,74.9

# Test system: not listed separately
# Experiment: Antiproliferative activity against human Caki1 cells assessed as growth inhibition after 48 hrs by sulforhodamine B assay
# Assay type: functional
# Settings: CAKI-1, 48 h
Compound,GI50 [µM],TGI [µM]
CNC(=O)c1cc(Oc2ccc3nc(NC(=O)c4cc(C(F)(F)F)cc(C(F)(F)F)c4)sc3c2)ccn1,2.75,10.7

# Same assay, conditions: CAKI-1, 48 h, read-out: LC50 (the source's name)
row,Compound,CC50 [µM]
1,CNC(=O)c1cc(Oc2ccc3nc(NC(=O)c4cc(C(F)(F)F)cc(C(F)(F)F)c4)sc3c2)ccn1,62.3

# Test system: MDA-MB-231
# Experiment: Antiproliferative activity against human MDA-MB-231 cells assessed as cell growth at 10^-6 M after 48 hrs by sulforhodamine B assay
# Assay type: functional
# Settings: MDA-MB-231, 48 h, read-out: Activity
row,Compound,growth at 1 µM [%]
1,CNC(=O)c1cc(Oc2ccc3nc(NC(=O)c4cc(C(F)(F)F)cc(C(F)(F)F)c4)sc3c2)ccn1,114

# Biological target: Serine/threonine-protein kinase B-raf (Homo sapiens, UniProt P15056, V600E)
# Sequence (P15056 2-766 V600E limits assumed): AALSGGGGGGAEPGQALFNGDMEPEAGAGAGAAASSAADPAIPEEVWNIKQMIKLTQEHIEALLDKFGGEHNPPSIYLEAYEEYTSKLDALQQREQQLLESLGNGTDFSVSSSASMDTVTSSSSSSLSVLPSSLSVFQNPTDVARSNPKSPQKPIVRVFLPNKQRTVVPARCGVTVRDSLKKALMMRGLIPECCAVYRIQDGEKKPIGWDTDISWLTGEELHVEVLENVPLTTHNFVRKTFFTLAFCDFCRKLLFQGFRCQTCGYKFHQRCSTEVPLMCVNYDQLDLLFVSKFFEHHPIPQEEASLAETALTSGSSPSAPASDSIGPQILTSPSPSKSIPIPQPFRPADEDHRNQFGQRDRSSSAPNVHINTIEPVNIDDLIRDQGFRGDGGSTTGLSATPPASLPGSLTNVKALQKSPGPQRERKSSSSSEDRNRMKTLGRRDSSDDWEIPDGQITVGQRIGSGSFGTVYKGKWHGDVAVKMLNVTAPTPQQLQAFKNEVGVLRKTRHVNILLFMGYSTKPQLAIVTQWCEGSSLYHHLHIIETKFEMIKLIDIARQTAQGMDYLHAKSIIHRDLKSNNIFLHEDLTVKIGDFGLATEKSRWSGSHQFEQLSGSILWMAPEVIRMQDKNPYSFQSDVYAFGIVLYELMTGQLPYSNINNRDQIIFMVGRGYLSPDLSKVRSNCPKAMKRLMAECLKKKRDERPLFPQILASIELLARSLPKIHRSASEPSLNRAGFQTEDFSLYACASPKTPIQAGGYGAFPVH
# Experiment: Inhibition of BRAF V600E mutant (unknown origin) measured after 40 mins by scintillation counting
# Settings: not given
row,Compound,IC50 [µM]
1,CNC(=O)c1cc(Oc2ccc3nc(NC(=O)c4cc(C(F)(F)F)cc(C(F)(F)F)c4)sc3c2)ccn1,4.3
